In article PMC9750872, “Ras-mutant cancers are sensitive to small molecule inhibition of V-type ATPases in mice” (Nature biotechnology, 2022):
“Also recorded” adds a separate entry of the source.

How the values were obtained:
hERG [1] = target: T1, hERG (Homo sapiens, UniProt Q12809); experiment: in vitro
human primary cells = experiment: BioMAP Safety and Toxicology screening profile; type: cell-based
Procedure: The BioMAP Toxicity Screening Profile was performed as described previously.

[2] = target: human ether-à-go-go-related gene (hERG) (Homo sapiens, UniProt Q12809); experiment: hERG fluorescence polarization assay; details: at 30 μM
hERG [3] = target: T1, hERG; experiment: hERG fluorescence polarization assay; details: human
Yeast V-ATPase = target: T2, Yeast V-ATPase (Saccharomyces cerevisiae, UniProt P25515+P41807); experiment: Biochemical V-ATPase (ATP hydrolysis) assay
T2 construct: V-ATPase was purified as described previously from yeast[82] using the detergent dodecylmaltoside; endogenous in cells; host or cells: yeast
Procedure: V-ATPase was purified as described previously from yeast[82] using the detergent dodecylmaltoside and porcine kidney[83] using the detergent glycol-diosgenin. ATPase assays with purified V-ATPase were performed as described previously. 249C (mammalian: 0.1, 1, 10, 100 μM and yeast: 5, 10 and 100 μM) or BafA1 (1 μM) were added to the reaction and compared with a negative control to which only DMSO was added. Enzyme-coupled ATPase biochemical activity assays were performed in a 96-well plate as described previously. […]
appears to cause accumulation of high molecular weight entities. Representative of 3 independent experiments. […]
observed. Data shown are mean ± SD ( n = 3) Two-tailed student’s t-test (C) ATP-dependent fluorescence quenching in yeast (me an ± SD; n = 3 ) Two-t ailed student’s t-test (D) SDS PAGE over th e cou rse of recombinant human ATP6V1H protein purification. 1. Mark ers; 2. Total l ysate (GST-fusion […]); 3. Soluble lysate; 4.
GSTrap flow-through; 5. GSTrap elute; 6. Post thrombin cleavage (target 54 kDa, GST 25 kDa); 7. Subtractive GSTrap flow -through; 8. Markers; 9. Final sample, 1 µg protein load. Repres entative of 2 independent ex periments. (E) Structure of biotin- 249C. […]
interfere with V-ATPas e binding. ( F) Experimental schematic of Bio-la yer inferometr y (B L I) .
(1 picture or pasted object on this page, not shown here)

[4] = target: T3, mammalian V-ATPase purified from pig kidneys (Sus scrofa, UniProt Q9TVC1); experiment: Biochemical V-ATPase (ATP hydrolysis) assay; details: concentrations as low as 1 μM
T3 construct: the entire V-ATPase complex (800 kDa) was purified as described previously from porcine kidneys; from tissue; host or cells: porcine kidney
Procedure: V-ATPase was purified as described previously from yeast[82] using the detergent dodecylmaltoside and porcine kidney[83] using the detergent glycol-diosgenin. ATPase assays with purified V-ATPase were performed as described previously. 249C (mammalian: 0.1, 1, 10, 100 μM and yeast: 5, 10 and 100 μM) or BafA1 (1 μM) were added to the reaction and compared with a negative control to which only DMSO was added. Enzyme-coupled ATPase biochemical activity assays were performed in a 96-well plate as described previously.

[5] = test system: V-ATPase-dependent proton transport in HEK293T cells; experiment: Proton pumping assay, FITC-Dextran-loaded lysosomes; type: cell-based, human; details: 1 h treatment, listed as BafA1
Text: Figure 4. […] (A) Model of the reversible assembly of V-ATPase. Cytosolic V1 subunits are depicted in blue and membrane Vo subunits in purple. Upon V-ATPase assembly, ATP is hydrolyzed to ADP accompanied by proton (H^+) pumping and luminal acidification (decrease in pH) (Created with BioRender). […] The amount of subunit B2 present in the membrane fraction indicates the amount of assembled V-ATPase. A representative Western blot is presented. […] Cells were mechanically lysed, and a fraction containing FITC-Dextran-loaded lysosomes was isolated by sedimentation centrifugation. Fluorescence was measured over time to assess pH-dependent quenching following addition of 1 mM magnesium-ATP (predetermined). […] Representative of 5 individual experiments with n = 3 for each is presented (mean ± SD) (D) Mammalian V-ATPase activity measured in the absence and presence of 1 μM 249C and 1 μM BafA1. Data shown are mean ± SD; n = 3. […]
4 × 10^6 HEK 293T cells were plated in 10-cm plates. […] Sample fluorescence was excited at 490 nm, and emission fluorescence at 520 nm was measured continuously in BioTek plate reader (Synergy) using Gen5 software (version 3.05). After initial fluorescence stabilization, 1 mM ATP and 2 mM MgCl2 were added to initiate ATPase activity and proton pumping into the lysosomes, which causes quenching of FITC in the lysosomal lumen. […]

T1 sequence (Q12809 whole entry): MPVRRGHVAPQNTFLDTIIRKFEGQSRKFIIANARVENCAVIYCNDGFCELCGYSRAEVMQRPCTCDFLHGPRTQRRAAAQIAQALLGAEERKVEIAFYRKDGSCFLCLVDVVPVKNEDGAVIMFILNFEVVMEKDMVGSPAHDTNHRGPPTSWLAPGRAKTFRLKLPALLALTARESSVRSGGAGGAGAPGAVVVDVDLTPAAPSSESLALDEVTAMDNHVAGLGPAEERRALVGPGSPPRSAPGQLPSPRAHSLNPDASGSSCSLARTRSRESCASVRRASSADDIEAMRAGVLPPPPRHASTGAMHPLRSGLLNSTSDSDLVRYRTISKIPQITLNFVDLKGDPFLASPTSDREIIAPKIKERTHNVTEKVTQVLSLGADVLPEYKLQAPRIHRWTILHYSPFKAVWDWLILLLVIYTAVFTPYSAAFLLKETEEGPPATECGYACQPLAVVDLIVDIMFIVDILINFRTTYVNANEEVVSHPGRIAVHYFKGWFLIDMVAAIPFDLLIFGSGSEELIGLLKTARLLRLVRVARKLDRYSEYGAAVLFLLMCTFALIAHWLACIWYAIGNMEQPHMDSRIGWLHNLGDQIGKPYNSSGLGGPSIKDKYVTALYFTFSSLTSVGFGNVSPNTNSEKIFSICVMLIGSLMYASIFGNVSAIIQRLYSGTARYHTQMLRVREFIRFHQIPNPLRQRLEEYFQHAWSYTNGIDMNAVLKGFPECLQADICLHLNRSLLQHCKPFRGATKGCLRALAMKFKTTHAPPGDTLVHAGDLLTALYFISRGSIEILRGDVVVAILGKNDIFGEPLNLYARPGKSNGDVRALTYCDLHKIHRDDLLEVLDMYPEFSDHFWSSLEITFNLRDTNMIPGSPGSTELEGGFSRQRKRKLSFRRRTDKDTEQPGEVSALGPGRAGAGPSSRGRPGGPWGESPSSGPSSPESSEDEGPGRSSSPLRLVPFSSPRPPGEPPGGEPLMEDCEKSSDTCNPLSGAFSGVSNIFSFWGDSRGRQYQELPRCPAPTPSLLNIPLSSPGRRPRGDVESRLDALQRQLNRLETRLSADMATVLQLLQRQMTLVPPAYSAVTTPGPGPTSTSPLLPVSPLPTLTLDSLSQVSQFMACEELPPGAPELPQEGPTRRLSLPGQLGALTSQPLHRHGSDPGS
human ether-à-go-go-related gene (hERG), sequence (Q12809 whole entry): as above
T3 sequence (Q9TVC1 whole entry): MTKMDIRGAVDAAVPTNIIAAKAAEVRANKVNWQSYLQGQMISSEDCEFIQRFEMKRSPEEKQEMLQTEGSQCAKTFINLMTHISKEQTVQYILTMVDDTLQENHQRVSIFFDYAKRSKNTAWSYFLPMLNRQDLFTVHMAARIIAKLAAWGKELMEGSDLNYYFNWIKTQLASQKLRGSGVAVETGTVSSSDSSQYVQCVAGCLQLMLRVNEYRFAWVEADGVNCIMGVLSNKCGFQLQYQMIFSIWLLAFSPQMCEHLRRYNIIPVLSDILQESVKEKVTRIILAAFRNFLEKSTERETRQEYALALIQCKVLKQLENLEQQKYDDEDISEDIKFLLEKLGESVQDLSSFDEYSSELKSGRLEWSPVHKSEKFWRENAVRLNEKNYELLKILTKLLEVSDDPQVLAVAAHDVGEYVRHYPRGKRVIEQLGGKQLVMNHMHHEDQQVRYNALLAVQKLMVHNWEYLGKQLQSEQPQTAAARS
T3 sequence (Q29048 whole entry partner): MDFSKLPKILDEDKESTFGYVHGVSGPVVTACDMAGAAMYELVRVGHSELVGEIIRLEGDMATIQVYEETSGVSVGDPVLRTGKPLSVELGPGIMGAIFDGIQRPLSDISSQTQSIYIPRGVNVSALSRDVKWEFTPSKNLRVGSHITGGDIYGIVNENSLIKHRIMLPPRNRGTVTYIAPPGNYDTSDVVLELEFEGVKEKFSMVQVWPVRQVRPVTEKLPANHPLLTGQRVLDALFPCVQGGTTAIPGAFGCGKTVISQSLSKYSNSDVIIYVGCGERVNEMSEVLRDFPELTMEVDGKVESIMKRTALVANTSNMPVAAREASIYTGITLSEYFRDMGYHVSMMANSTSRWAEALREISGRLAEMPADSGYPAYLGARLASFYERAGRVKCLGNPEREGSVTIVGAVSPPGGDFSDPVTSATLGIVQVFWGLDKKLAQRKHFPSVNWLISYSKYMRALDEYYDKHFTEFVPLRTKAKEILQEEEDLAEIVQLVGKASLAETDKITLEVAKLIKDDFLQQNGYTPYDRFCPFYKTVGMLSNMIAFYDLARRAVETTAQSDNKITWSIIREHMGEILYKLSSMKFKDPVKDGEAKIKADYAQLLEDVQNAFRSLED
T2 sequence (P25515 whole entry): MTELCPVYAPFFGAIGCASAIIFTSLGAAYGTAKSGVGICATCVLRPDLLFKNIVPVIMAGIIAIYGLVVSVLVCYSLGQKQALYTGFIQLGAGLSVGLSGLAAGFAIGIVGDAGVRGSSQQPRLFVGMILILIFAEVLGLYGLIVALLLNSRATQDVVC
T2 sequence (P41807 2-478): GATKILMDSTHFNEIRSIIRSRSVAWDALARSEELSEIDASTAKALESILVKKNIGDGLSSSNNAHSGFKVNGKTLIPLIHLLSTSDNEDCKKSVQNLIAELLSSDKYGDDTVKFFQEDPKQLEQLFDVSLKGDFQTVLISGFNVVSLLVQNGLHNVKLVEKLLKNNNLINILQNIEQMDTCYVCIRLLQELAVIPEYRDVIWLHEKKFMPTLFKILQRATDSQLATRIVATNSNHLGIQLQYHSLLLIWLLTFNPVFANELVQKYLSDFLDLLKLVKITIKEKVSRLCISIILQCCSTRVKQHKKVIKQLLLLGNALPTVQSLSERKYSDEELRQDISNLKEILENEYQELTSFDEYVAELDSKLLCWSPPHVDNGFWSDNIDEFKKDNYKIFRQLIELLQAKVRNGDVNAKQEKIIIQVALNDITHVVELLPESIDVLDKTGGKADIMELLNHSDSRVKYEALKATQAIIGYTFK

CCN(CCO)CCCC(C)Nc1ccnc2cc(Cl)ccc12 (stereo not shown) [HCQ, hydroxychloroquine]
inhibition at 30 µM (hERG [1]): ~60% | BioMAP Screening Profile 3C:SRB (human primary cells; human, 1000 nM): 0 | BioMAP Screening Profile 4H:SRB (human primary cells; human, 1000 nM): 0 | BioMAP Screening Profile BE3C:SRB (human primary cells; human, 1000 nM): 0 | BioMAP Screening Profile BF4T:SRB (human primary cells; human, 1000 nM): 0 | BioMAP Screening Profile BT:PBMC Cytotoxicity (human primary cells; human, 1000 nM): 0 | BioMAP Screening Profile CASM3C:SRB (human primary cells; human, 1000 nM): 0 | BioMAP Screening Profile Cytotoxicity (human primary cells; human, 1000 nM): 0 | BioMAP Screening Profile HDF3CGF:SRB (human primary cells; human, 1000 nM): 0 | BioMAP Screening Profile KF3CT:SRB (human primary cells; human, 1000 nM): 0 | BioMAP Screening Profile LPS:SRB (human primary cells; human, 1000 nM): 0 | BioMAP Screening Profile MyoF:SRB (human primary cells; human, 1000 nM): 0 | BioMAP Screening Profile SAg:PBMC Cytotoxicity (human primary cells; human, 1000 nM): 0 | BioMAP Screening Profile SAg:SRB (human primary cells; human, 1000 nM): 0 | BioMAP Screening Profile lMphg:SRB (human primary cells; human, 1000 nM): 0 | BioMAP Screening Profile lMphg:SRB-Mphg (human primary cells; human, 1000 nM): 0

CN(CCCCCCNc1ccnc2cc(Cl)ccc12)CCCCCCNc1ccnc2cc(Cl)ccc12 [DC661]
Percent inhibition of hERG [2]: 100%

CO/C1=C\C(C)=C\[C@@H](C)[C@@H](O)[C@@H](C)C/C(C)=C/C=C/[C@H](OC)[C@@H]([C@@H](C)[C@@H](O)[C@H](C)[C@@]2(O)C[C@@H](O)[C@H](C)[C@@H](C(C)C)O2)OC1=O [Bafilomycin A1, reference compound]
inhibition at 30 µM (hERG [3]): 35% | Yeast V-ATPase activity (Yeast V-ATPase): modest inhibition | toxicity categories / adverse events in BioMAP safety profiling (human primary cells; over 100 biomarker readouts): 2 | ATP hydrolysis of intact mammalian V-ATPase [4]: blocked ATP hydrolysis | V-ATPase-dependent proton transport (ATP-dependent fluorescence quenching) [5]: inhibited V-ATPase-dependent proton transport; also recorded: ATP-dependent fluorescence quenching was not observed
